The test system of assay [1] is Human Microvascular Endothelial Cells. Nature of the assay: Human microvascular endothelial cell (HMVEC) migration assay, modified Boyden chamber. In kind it is cell-based. As to conditions: activators 15 ng/ml bFGF/VEGF, 4 hours at 37 °C. On the procedure:
The human microvascular endothelial (HMVEC) migration assay was run according to the procedure of S. S. Tolsma, O. V. Volpert, D. J. Good, W. F. Frazier, P. J. Polverini and N. Bouck, J. Cell Biol. 122, 497-511 (1993).
The HMVEC migration assay was carried out using Human Microvascular Endothelial Cells-Dermal (single donor) and Human Microvascular Endothelial Cells, (neonatal). The BCE or HMVEC cells were starved overnight in DME containing 0.1 % bovine serum albumin (BSA). Cells were then harvested with trypsin and resuspended in DME with 0.1 % BSA at a concentration of 1.5 X 10^6 cells per ml. Cells were added to the bottom of a 48 well modified Boyden chamber (Nucleopore Corporation, Cabin John, MD). The chamber was assembled and inverted, and cells were allowed to attach for 2 hours at 37 °C to polycarbonate chemotaxis membranes (5 µm pore size) that had been soaked in 0.1% gelatin overnight and dried. The chamber was then reinverted, and test substances (total volume of 50 µl), including activators, 15 ng/ml bFGF/VEGF, were added to the wells of the upper chamber. The apparatus was incubated for 4 hours at 37 °C. Membranes were recovered, fixed and stained (Diff Quick, Fisher Scientific) and the number of cells that had migrated to the upper chamber per […] high power fields counted. Background migration to DME + 0.1 BSA was subtracted and the data reported as the number of cells migrated per 10 high power fields (400X) or, when results from multiple experiments were combined, as the percent inhibition of migration compared to a positive control.

Assay [2] has as its system Rat Cornea Neovascularization. Nature of the assay: Rat cornea neovascularization (bFGF/Hydron pellet implantation). In kind it is in vivo, Sprague Dawley rats. The conditions noted are these: day seven post-implantation. Here is the method:
[…] Louis, MO) were pipetted into the tip of a sterile Teflon rod. After drying for 1-2 hours, the pellets were stored at 4 °C.
A small (about 2 mm) radial incision at 1 mm from the center of the cornea was performed in anesthetized Sprague Dawley rats. With a curved iris spatula, an intrastromal pocket was made to a distance of 1 mm from the limbus-the circular blood vessels that surround the cornea. A single pellet was implanted. Antibiotic ointment (neosporin) was applied post surgery to the operated eye to prevent infection and to decrease inflammation.
At day seven post-implantation, neovascularization was measured through a slitlamp biomicroscopy (Nikon NS-1), connected to an image analysis system (Leica Qwin). The response was calculated by colorimetrically detecting the area of new blood vessels, and calculating the new vessel surface area in µm^2.

Peptide text beside a SMILES is read from it.

Regarding “N-Cyclohexylacetyl-Sar-Gly-Val-D-Ile-Tlu-Nva-Ile-Arg-ProNHCH2CH3 [Example 52]”, the “% Inhib. @ 20 nM” value in assay [1] is on record as 46.5%.

Regarding `CCC[C@H](NC(=O)[C@@H](NC(=O)[C@H](NC(=O)[C@@H](NC(=O)CNC(=O)CN(C)C(C)=O)C(C)C)[C@H](C)CC)[C@@H](C)O)C(=O)N[C@H](C(=O)N[C@@H](CCCNC(=N)N)C(=O)N1CCC[C@H]1C(=O)NCCC1CCCCC1)[C@@H](C)CC` [Example 12, N-Ac-Sar-Gly-Val-D-Ile-Thr-Nva-Ile-Arg-ProNHCH2CH2-cyclohexyl] (HELM PEPTIDE1{[ac].[Sar].G.V.[dI].T.[Nva].I.R.P.[C1CCC(CCN[*:1])CC1]}$$$$V2.0), the “% Inhib. @ 20 nM” value in assay [1] is given as 55.8%.

As to `CCC[C@H](NC(=O)[C@@H](NC(=O)[C@H](NC(=O)[C@@H](NC(=O)CNC(=O)CN(C)C(C)=O)C(C)C)[C@H](C)CC)[C@@H](C)O)C(=O)N[C@H](C(=O)N[C@@H](CCCNC(=N)N)C(=O)N1CCC[C@H]1C(=O)NC)[C@@H](C)CC` [Example 3, N-Ac-Sar-Gly-Val-D-Ile-Thr-Nva-Ile-Arg-ProNHCH3] (HELM PEPTIDE1{[ac].[Sar].G.V.[dI].T.[Nva].I.R.P.[CN[*:1]]}$$$$V2.0), the “% Inhib. @ 20 nM” value in assay [1] stood at 56.0%.

As to `CCC[C@H](NC(=O)[C@@H](NC(=O)[C@H](NC(=O)[C@@H](NC(=O)CNC(=O)CN(C)C(=O)CCCCCNC(C)=O)C(C)C)[C@H](C)CC)[C@@H](C)O)C(=O)N[C@H](C(=O)N[C@@H](CCCNC(=N)N)C(=O)N1CCC[C@H]1C(=O)NCC)[C@@H](C)CC` [Example 63, N-[6-N'-Acetyl-(CH2)5C(O)]-Sar-Gly-Val-D-Ile-Thr-Nva-Ile-Arg-ProNHCH2CH3] (HELM PEPTIDE1{[ac].[O=C(CCCCCN[*:1])[*:2]].[Sar].G.V.[dI].T.[Nva].I.R.P.[CCN[*:1]]}$$$$V2.0), the “% Inhib. @ 10 nM” value in assay [1] came out at 82.4%.

In the case of “N-Ac-Sar-Gly-Val-D-Ile-Thr-Nva-Ile-Arg-ProNHethyl-1-(R)-cyclohexyl [Example 8]”, the “% Inhib. @ 10 nM” value in assay [1] was 88.2%.

As for `CCC[C@H](NC(=O)[C@@H](NC(=O)[C@H](NC(=O)[C@@H](NC(=O)CNC(=O)CN(C)C(C)=O)C(C)C)[C@H](C)CC)[C@@H](C)O)C(=O)N[C@H](C(=O)N[C@@H](CCCNC(=N)N)C(=O)N1CCC[C@H]1C(=O)NCC)[C@@H](C)CC` [Example 1, N-Ac-Sar-Gly-Val-D-Ile-Thr-Nva-Ile-Arg-ProNHCH2CH3] (HELM PEPTIDE1{[ac].[Sar].G.V.[dI].T.[Nva].I.R.P.[CCN[*:1]]}$$$$V2.0), the “% Inhibition” value in assay [2] (dose 5 µM in pellet with 100 ng bFGF, 5 corneas) stood at 74.8%; in assay [2] (dose 6 µM in pellet with 100 ng bFGF, 4 corneas), 71.5%; in assay [2] (dose 10 µM in pellet with 100 ng bFGF, 6 corneas), 92.6%.

`CCCCCCCC[C@H](NC(=O)[C@@H](NC(=O)[C@H](NC(=O)[C@@H](NC(=O)CNC(=O)CN(C)C(C)=O)C(C)C)[C@H](C)CC)[C@@H](C)O)C(=O)N[C@H](C(=O)N[C@@H](CCCNC(=N)N)C(=O)N1CCC[C@H]1C(=O)NCC)[C@@H](C)CC` [Example 50, N-Ac-Sar-Gly-Val-D-Ile-Thr-Octylgly-Ile-Arg-ProNHCH2CH3] (HELM PEPTIDE1{[ac].[Sar].G.V.[dI].T.[CCCCCCCC[C@H](N[*:1])C(=O)[*:2]].I.R.P.[CCN[*:1]]}$$$$V2.0): the “% Inhib. @ 20 nM” value in assay [1] turned out to be 71.6%.

For the origin of these results see patent publication EP1078002B1, “PEPTIDE ANTIANGIOGENIC DRUGS” (ABBOTT LABORATORIES, priority 1998, dated 1999).
